Experimental data taken from patent publication US20240139211A1, “METHODS AND COMPOSITIONS FOR TREATING AMYOTROPHIC LATERAL SCLEROSIS” (Amylyx Pharmaceuticals, Inc., priority 2022, published 2024).
Read-outs that look alike come from different tables or passages of the source.

Experiments:
[1] = molecular target: T1, OAT1 (Homo sapiens, UniProt Q4U2R8); assay: Substrate of OAT1, uptake in HEK293 cells
T1 sequence (Q4U2R8 1-563): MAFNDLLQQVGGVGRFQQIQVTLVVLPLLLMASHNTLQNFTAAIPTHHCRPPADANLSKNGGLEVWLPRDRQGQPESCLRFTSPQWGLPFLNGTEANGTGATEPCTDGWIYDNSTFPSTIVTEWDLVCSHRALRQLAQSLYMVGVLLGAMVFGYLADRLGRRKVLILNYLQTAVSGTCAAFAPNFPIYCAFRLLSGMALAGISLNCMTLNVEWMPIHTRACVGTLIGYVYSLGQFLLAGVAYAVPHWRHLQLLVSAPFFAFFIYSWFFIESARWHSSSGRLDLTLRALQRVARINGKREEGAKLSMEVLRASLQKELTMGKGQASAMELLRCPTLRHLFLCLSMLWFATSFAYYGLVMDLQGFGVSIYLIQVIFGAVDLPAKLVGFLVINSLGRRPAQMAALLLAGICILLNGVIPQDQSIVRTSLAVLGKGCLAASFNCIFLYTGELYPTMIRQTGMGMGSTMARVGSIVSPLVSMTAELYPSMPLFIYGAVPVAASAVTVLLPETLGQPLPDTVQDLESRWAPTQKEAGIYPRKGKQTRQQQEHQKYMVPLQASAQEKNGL
Excerpt: Vector-transfected HEK cells were used as a control.

[2] = molecular target: T2, OCT1 (Homo sapiens, UniProt O15245); assay: Inhibitor of OCT1, probe substrate uptake; conditions: for Inhibition of OCT1 / Inhibitor of OCT1: two concentrations per test article; for potency estimated from few doses: read-out: Estimated IC50, OCT1
T2 sequence (O15245 1-554): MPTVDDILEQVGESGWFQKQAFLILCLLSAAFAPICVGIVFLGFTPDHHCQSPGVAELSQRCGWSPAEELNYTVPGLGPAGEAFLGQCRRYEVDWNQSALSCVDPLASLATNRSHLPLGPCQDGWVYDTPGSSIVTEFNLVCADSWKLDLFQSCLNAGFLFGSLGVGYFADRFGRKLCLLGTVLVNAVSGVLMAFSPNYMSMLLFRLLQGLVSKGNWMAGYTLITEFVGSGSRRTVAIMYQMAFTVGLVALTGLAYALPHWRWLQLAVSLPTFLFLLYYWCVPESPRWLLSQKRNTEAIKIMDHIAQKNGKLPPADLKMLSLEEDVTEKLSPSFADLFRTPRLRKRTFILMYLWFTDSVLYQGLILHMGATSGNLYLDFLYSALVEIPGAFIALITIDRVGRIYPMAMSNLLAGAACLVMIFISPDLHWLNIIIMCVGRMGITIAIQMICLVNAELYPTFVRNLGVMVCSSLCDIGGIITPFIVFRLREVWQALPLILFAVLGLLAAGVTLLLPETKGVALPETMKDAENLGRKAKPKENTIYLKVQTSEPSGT

[3] = molecular target: T3, MATE1 (Homo sapiens, UniProt Q96FL8); assay: Inhibitor of MATE1, probe substrate uptake; conditions: for potency estimated from few doses: read-out: Estimated IC50, MATE1; for Inhibition of MATE1 / Inhibitor of MATE1: two concentrations per test article
T3 sequence (Q96FL8 1-570): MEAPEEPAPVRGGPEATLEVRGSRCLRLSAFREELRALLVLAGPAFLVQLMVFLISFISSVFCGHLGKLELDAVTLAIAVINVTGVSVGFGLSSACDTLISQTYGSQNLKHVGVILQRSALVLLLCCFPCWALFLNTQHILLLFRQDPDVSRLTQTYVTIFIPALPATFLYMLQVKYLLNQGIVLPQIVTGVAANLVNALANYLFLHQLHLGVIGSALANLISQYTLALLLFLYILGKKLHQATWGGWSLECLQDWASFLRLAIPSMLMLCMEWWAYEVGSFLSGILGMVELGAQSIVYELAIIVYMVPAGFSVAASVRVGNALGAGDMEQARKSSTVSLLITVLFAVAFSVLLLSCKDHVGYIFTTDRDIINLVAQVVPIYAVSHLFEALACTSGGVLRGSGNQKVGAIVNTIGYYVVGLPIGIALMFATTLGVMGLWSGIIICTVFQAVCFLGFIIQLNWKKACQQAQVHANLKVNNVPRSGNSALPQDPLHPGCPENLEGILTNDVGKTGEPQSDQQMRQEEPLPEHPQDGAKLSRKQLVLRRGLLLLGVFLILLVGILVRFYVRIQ

[4] = molecular target: OATP1B1 (Homo sapiens, UniProt Q9Y6L6); assay: Inhibitor of OATP1B1, probe substrate uptake; conditions: for potency estimated from few doses: read-out: Estimated IC50, OATP1B1; for Inhibition of OATP1B1 / Inhibitor of OATP1B1: two concentrations per test article
[5] = molecular target: P-gp (Homo sapiens, UniProt P08183); assay: Substrate of P-gp (Caco-2 cells, selective inhibitors)
[6] = molecular target: T4, BCRP (Homo sapiens, UniProt Q9UNQ0); assay: Inhibitor of BCRP, 3H-estrone-3-sulfate efflux in Caco-2 cells
T4 sequence (Q9UNQ0 1-655): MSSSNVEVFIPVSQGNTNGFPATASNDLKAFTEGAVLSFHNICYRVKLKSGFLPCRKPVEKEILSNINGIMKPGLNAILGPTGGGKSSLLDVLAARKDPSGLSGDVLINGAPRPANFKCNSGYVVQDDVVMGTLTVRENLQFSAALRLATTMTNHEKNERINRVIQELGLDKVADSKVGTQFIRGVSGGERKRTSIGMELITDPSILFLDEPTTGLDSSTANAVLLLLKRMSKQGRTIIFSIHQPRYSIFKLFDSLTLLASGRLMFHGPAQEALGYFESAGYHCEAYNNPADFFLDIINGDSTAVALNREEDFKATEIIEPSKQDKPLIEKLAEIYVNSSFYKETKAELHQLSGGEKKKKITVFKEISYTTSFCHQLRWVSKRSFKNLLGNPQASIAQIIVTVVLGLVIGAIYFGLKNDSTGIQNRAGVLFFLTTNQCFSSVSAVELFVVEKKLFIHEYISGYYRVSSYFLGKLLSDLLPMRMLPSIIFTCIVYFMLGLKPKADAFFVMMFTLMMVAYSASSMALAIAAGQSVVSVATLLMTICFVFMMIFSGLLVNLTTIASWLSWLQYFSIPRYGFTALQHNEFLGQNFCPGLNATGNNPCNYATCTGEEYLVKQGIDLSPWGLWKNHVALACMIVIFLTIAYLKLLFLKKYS

[7] = estimated from two concentrations
[8] = test article 1 and 10 μM, Caco-2 cells
[9] = Caco-2, two concentrations per test article
[10] = higher test concentration (UDCA: second assay)
[11] = lower test concentration (UDCA: second assay)
[12] = two concentrations per test article, Caco-2 cells

Chain of P-gp (P08183 whole entry): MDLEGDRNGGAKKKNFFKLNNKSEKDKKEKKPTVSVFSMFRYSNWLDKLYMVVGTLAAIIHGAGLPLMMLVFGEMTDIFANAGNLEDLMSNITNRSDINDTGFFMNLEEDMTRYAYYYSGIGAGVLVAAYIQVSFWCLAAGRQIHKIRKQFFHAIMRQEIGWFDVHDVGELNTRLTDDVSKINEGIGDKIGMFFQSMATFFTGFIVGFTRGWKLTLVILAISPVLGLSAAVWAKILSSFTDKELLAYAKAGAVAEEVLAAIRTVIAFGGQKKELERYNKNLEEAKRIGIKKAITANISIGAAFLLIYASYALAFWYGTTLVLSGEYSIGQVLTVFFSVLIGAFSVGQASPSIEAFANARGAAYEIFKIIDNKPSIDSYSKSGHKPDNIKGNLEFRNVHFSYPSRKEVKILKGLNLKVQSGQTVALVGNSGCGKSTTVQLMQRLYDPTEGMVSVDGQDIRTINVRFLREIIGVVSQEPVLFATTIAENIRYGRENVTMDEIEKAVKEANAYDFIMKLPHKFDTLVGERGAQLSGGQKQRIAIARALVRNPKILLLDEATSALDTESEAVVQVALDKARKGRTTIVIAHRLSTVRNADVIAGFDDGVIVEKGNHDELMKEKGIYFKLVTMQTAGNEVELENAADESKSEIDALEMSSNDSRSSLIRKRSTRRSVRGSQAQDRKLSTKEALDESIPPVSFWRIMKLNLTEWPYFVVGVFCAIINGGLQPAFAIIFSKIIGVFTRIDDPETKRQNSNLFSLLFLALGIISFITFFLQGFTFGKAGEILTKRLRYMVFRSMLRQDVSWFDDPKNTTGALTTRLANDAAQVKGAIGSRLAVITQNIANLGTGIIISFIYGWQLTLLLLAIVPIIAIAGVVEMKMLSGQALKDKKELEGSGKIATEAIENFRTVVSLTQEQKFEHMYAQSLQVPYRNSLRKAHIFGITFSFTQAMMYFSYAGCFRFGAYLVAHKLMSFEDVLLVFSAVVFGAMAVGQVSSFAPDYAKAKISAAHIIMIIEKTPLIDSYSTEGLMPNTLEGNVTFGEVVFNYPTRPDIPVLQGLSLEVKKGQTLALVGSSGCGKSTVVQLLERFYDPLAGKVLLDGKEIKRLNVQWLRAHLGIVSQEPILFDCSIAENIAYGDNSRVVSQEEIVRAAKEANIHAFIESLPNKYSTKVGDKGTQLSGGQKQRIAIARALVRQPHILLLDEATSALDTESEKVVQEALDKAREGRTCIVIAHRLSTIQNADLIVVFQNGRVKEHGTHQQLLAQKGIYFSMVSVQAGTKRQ
Chain of OATP1B1 (Q9Y6L6 whole entry): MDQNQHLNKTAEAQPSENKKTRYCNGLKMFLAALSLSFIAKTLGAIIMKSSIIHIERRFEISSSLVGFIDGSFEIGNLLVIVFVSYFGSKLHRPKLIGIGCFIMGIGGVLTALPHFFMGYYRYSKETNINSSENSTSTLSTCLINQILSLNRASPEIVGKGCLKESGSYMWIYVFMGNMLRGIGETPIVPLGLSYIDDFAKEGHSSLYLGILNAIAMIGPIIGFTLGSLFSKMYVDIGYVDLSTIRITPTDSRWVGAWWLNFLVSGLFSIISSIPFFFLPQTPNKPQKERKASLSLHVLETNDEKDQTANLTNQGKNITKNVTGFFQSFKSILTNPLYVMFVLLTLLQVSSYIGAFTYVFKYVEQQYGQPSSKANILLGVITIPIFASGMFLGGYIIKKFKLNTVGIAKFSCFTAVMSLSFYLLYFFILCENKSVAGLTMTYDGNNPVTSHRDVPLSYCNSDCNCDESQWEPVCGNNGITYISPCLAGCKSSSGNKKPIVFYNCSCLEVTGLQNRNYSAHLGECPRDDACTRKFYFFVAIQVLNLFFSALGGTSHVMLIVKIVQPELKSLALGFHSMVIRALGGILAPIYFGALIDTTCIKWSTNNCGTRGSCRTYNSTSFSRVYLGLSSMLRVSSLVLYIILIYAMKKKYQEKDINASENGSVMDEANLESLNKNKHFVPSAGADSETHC

Row | Molecule | Substrate of OAT1 ([1]; 1 and 10 μM) | Substrate of OAT1 ([1]; test article 1 and 10 μM) | Inhibition of OCT1 [2] | Inhibitor of OCT1 [2] | potency estimated from few doses [3, 7] | potency estimated from few doses ([3]; estimated from two doses) | Inhibition of MATE1 [3] | Inhibitor of MATE1 [3] | Uptake activity remaining, OATP1B1 ([4]; 50 μM) | potency estimated from few doses [4, 7] | potency estimated from few doses ([4]; estimated from two doses) | Inhibition of OATP1B1 [4] | Inhibitor of OATP1B1 [4] | Substrate of P-gp ([5]; Caco-2, 1 and 10 μM) | Substrate of P-gp [5, 8] | Inhibitor of BCRP [6, 9] | Remaining BCRP activity, % of the control [6, 10] | Remaining BCRP activity, % of the control [6, 11] | Inhibitor of BCRP [6, 12] | also measured
1 | tauroursodeoxycholic acid [TUDCA] | not a substrate | No | did not inhibit | No | > 50 µM | > 50 µM | inhibited | Yes | roughly 18% | < 50 µM | < 50 µM | inhibited | Yes | as a substrate | Yes | not an inhibitor | 92.3% | 111% | No | –
2 | O=C(O)CCCc1ccccc1 [PB, sodium phenylbutyrate] | – | – | did not inhibit | No | < 250 µM | – | inhibited | Yes | – | – | – | did not inhibit | No | not a substrate | No | not an inhibitor | 84.7% | 125% | No | Uptake activity remaining, MATE1 ([3]; 250 μM): 43.7%
3 | O=C(O)Cc1ccccc1 [Phenylacetic acid, phenylacetic acid] | not a substrate | No | did not inhibit | No | – | – | did not inhibit | No^a | – | > 7500 µM | – | inhibited | Yes | not a substrate | No | not an inhibitor | 199% | 162% | No | –
4 | ursodeoxycholic acid | not a substrate | No | inhibited | Yes | < 500 µM | < 500 µM | inhibited | Yes | 545.1% | < 50 µM | < 50 µM | inhibited | Yes | not a substrate | No | not an inhibitor | 155% | 228% | No | potency estimated from few doses [2, 7]: < 500 µM; potency estimated from few doses ([2]; estimated from two doses): < 500 µM; Uptake activity remaining, OATP1B1 ([4]; 500 μM): no uptake activity remaining; BCRP activity, % of the control ([6]; first assay, 500 μM): 130%
5 | C[C@H](CCC(=O)NCC(=O)O)[C@H]1CC[C@H]2[C@@H]3[C@@H](O)C[C@@H]4C[C@H](O)CC[C@]4(C)[C@H]3CC[C@]12C [Glycoursodeoxycholic acid, glycoursodeoxycholic acid] | – | – | did not inhibit | No | > 100 µM | – | inhibited | Yes | – | – | – | inhibited | Yes | as a substrate | Yes | identified as an inhibitor | – | – | Yes | Uptake activity remaining, OATP1B1 ([4]; 10 μM): 50.4%; Uptake activity remaining, OATP1B1 ([4]; 100 μM): 1.68%; Efflux remaining with zosuquidar ([5]; Caco-2): < 55.3%; Efflux remaining with verapamil ([5]; Caco-2, at 10 μM): 74.7%; potency estimated from few doses ([6]; read-out: Estimated IC50, BCRP, estimated from two concentrations, Caco-2 cells): > 100 µM
